This is an account of results in patent US5230998A, “Method for the prescreening of drugs targeted to the V3 hypervariable loop of the HIV-1 envelope glycoprotein gp 120” (priority 1991, dated 1993).

SMILES strings stand for the structures. Entries after “also recorded” stand apart in the source; their conditions may differ.

The target in assay [1] is T1, HIV-1 IIIB glycoprotein gp120 V3 hypervariable loop (Human immunodeficiency virus type 1 BH10, UniProt P03375).
T1 construct: b180 also mentions the V3 loop peptide
Briefly: Inhibition of the reaction between HIV-1 IIIB gp120 and three distinct antibodies reacting with the V3 hypervariable loop (FIGS. 8-11). To be noted: 60 μg/ml, metal complexes versus uncomplexed. It is filed as binding. As to the method:
(§1) FIG. 8 is a bar graph depicting the inhibitory effect of chlorine6 (60 μg/ml) and metal chelates thereof on the reaction between HIV-1 IIIB glycoprotein gp120 and three distinct antibodies reacting with the V3 hypervariable loop of this glycoprotein. The antisera used were rabbit antiserum to a synthetic peptide corresponding to the V3 hypervariable loop of HIV-1 clone BH10, serum of a chimpanzee immunized with V3 hypervariable loop peptides of distinct HIV-1 isolates and monoclonal antibodies (McAb NEA 9305) raised against residues (315-329) of the V3 hypervariable loop of HIV-1 BH10 (Neurath et al (1990), Molec. Immunol., 27, 539-549).
FIG. 9 is a bar graph depicting the inhibitory effect of deuteroporphyrin IX,2-vinyl,4-hydroxymethyl (60 μg/ml) and metal chelates thereof on the reaction between HIV-1 IIIB glycoprotein gp120 and three distinct antibodies reacting with the V3 hypervarible loop of this glycoprotein. The antisera used were rabbit antiserum to a synthetic peptide corresponding to the V3 hypervariable loop of HIV-1 clone BH10, serum of a chimpanzee immunized with V3 hypervariable loop peptides of distinct HIV-1 isolates and monoclonal antibodies (McAb NEA 9305) raised against a synthetic peptide corresponding to residues (315-329) of the V3 hypervariable loop of HIV-1 BH10 (Neurath et al (1990), Molec. Immunol 27, 539-549).
as §1, with “FIG. 10” for “FIG. 8”, “of meso-tetra (4-carboxyphenyl)porphine” for “of chlorine6”, “against a synthetic peptide corresponding to” for “against”, “HIV-1 BH10.” for “HIV-1 BH10”
as §1, with “FIG. 11” for “FIG. 8”, “of uroporphyrin III” for “of chlorine6”, “against a synthetic peptide corresponding to” for “against”, “et al,” for “et al”, “Molec. lmmunol.,” for “Molec. Immunol.,”, “27, 539-549)” for “27, 539-549).”
Monoclonal antibodies (McAbs) recognizing the V3 hypervariable loop of HIV-1 BH 10 (McAb 9305 from DuPont, Wilmington, Del.) and an antiserum from a chimpanzee immunized with a mixture of V3 hypervariable loop peptides from 21 distinct HIV1 isolates (Girard, M., Kieny, M-P., Pinter, A., Barre-Sinoussi, F., Nara, P., Kolbe, H., Kusumi, K., Chaput, A., Reinhart, T., Muchmore, E, Ronco, J., Kaczorek, M., Gomard, E, Gluckman, JC., Fultz, P. N. (1991), "Immunization of Chimpanzees Confers Protection Against Challenge with Human Immunodeficiency Virus", Proc. Natl. Acad. Sci. USA, 88, 542-546) were also used for studies on the inhibitory affect of ATA on the reaction between these antibodies and gp120, using ELISA tests. These tests were carried out similarly as RIA, except that sodium merthiolate (1 mg/ml) was added to the buffers instead of NaN3, and goat antimouse IgG antibodies (Boehringer Mannheim Biochemicals, Indianapolis, Ind.) and goat anti-human IgG antibodies (Sigma, St. Louis, Mo.), respectively, each linked to horseradish peroxidase were used as second antibodies at final dilutions of 1:1,000 in phosphate-buffered saline (PBS) containing 10% goat serum and 0.1% Tween 20. […]

Assay [2] has as its target T2, HIV-1 JY-1 V3 hypervariable loop peptide (Human immunodeficiency virus type 1 lw12.3 isolate, UniProt Q70626).
T2 construct: cut from Env gp160
Nature of the assay: Reactivity/attachment of ATA with V3 hypervariable loop peptides of distinct HIV-1 isolates (FIG. 4). It is filed as binding. As to the method:
(§2) FIG. 4 comprises bar graphs depicting the interaction of aurintricarboxylic acid (ATA) with full length V3 hypervariable loop peptides from gp120 of distinct HIV-1 isolates (clones). FIG. 4A: Inhibitory effects of ATA (50 μg/ml) on the reaction between peptide-coated wells and homologous anti-peptide antisera (diluted 1:1,000). FIG. 4B: attachment of ATA to distinct V3 hypervariable loop peptide-coated wells as determined by double antibody RIA using rabbit antiserum against ATA.
(§3) To define sites on gp120/gp41 reacting with ATA, the inhibitory effect of this compound was studied by RIA tests using gp120- and gp160-coated wells, respectively, and antisera (final dilutions 1:150) against synthetic peptides from the entire sequence of gp120/gp41 of HIV-1 BH 10. The preparation and biological properties of these antisera were described elsewhere (Neurath et al., (1990), J. Gen. Virol., 71, 85-95). Each of the antisera was diluted in a mixture of fetal bovine serum and goat serum (9:1) containing 0.1% Tween 20, adjusted to pH 8. ATA (final concentration 50 μg/ml) was added in one set of assays, but was omitted from a parallel set. After incubation overnight at 25° C., the plates were washed with TS. Attached rabbit IgG was detected using ^125 I-labeled anti-rabbit IgG, as described before (Neurath et al., 1990, J. Gen. Virol., 71, 85-95). Similarly, the inhibitory effect of ATA on the reaction of peptides derived from gp120/gp41 and of peptides derived from V3 hypervariable loops from gp120 of distinct HIV-1 isolates with the respective homologous anti-peptide antisera was studied. In the latter case, antisera were diluted 1:1,000 for the assays.
(§4) ATA was also added to a control peptide, (518-542), and to wells coated with gelatin only. After incubation for 4 hours at 20° C., excess ATA was removed, the wells were washed with TS and attached ATA was determined by double-antibody RIA using serial dilutions of the anti-ATA antiserum. […]

The target in assay [3] is T3, HIV-1 SC V3 hypervariable loop peptide (Human immunodeficiency virus type 1 (SC ISOLATE), UniProt P05878).
T3 construct: cut from Env gp160
Described as above. It is filed as binding. As to the method: as §2, §3, §4

The subject of a further assay is HIV-1. The settings on record: literature; listed as ATA; cited from earlier work.

T3 sequence (P05878 296-330): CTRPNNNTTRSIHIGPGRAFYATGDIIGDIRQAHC
T2 sequence (Q70626 296-331): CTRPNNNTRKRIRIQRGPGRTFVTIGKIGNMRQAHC

For the compound `C=Cc1c(C)c2cc3nc(c(CC(=O)O)c4[nH]c(cc5nc(cc1[nH]2)C(C)=C5CC)c(C)c4C(=O)O)[C@@H](CCC(=O)O)[C@@H]3C` [substance #149, chlorine e6], the “inhibitory activity on the interaction between the V3 hypervariable loop of HIV-1-IIIB and antisera” value in assay [1] was “considerable inhibitory activity”.
As for `O=C(O)C1=CC(=C(c2ccc(O)c(C(=O)O)c2)c2ccc(O)c(C(=O)O)c2)C=CC1=O` [substance #122, aurintricarboxylic acid], the “reactivity of ATA with V3 hypervariable loop peptide” value in assay [2] and in assay [3] (FIG. 4) was “minimal” each time. Also, the “ATA binding to V3 peptide” value in assay [3] (FIG. 4B) is “bound very little ATA”. Also, in the assay on HIV-1, the “inhibition of HIV-1 replication / antiviral activity” value is “inhibited the replication of HIV-1 in vitro; also recorded: inhibit the cytopathogenicity and replication of the human immunodeficiency virus type 1”.
